Test [1] concerns preformed biofilm of P. aeruginosa PA14. Kind of test: microbe, parasite or virus in culture. The following applies: for dispersion of established biofilm (observation): 10^−8 M; for dispersion of established biofilm (observation) / % Inhibition (2 h) / Biovolume (2 h): 2 h exposure. Here is the method: Briefly, from an 18 h pre-culture, a bacterial suspension at OD600=0.08 prepared in sterile physiological saline solution was injected into each channel of the flow chamber. The bacteria were left for 2 h at 37° C. under static conditions (no flow) so that they adhered to the glass slide. Study of biofilm formation was then conducted under a flow of LB medium (2.5 ml/h) for 24 h at 37° C.
[…] Treatment of the preformed biofilm was conducted for 2 h at 37° C. under static conditions.
(§1) Treatment of the preformed biofilm was conducted for 2 h at 37° C. under static conditions.
To test the membrane integrity of the bacteria, a mixture of 5 μM SYTO 9 Green and 0.3 μM propidium iodide (PI) was used (Live/Dead BacLight Bacterial Viability Kit, Invitrogen).
as §1, §1, §1, §1
Treatment of the biofilm was conducted for 2 h at 37° C. under static conditions. […] Next, 300 μl of tobramycin (50 μg/ml) or 300 μl of milliQ sterile water (control conditions) were injected into the two channels of the flow chamber pre-exposed to ANP. The second treatment of the preformed biofilm was again conducted for 2 h at 37° C. under static conditions.

The target of test [2] is AmiC sensor of P. aeruginosa (Pseudomonas aeruginosa, UniProt P27017). To be noted: Rosay et al. (2015); cited from earlier work.
Test [3] has as its system P. aeruginosa biofilm. To be noted: Desriac et al. 2017, 2018; Rosay et al. 2015; cited from earlier work.
Setting [4] is: Pseudomonas aeruginosa, PA14, 2 h.

Read-outs that look alike come from different tables or passages of the source.

AmiC sensor of P. aeruginosa, sequence (P27017 whole entry): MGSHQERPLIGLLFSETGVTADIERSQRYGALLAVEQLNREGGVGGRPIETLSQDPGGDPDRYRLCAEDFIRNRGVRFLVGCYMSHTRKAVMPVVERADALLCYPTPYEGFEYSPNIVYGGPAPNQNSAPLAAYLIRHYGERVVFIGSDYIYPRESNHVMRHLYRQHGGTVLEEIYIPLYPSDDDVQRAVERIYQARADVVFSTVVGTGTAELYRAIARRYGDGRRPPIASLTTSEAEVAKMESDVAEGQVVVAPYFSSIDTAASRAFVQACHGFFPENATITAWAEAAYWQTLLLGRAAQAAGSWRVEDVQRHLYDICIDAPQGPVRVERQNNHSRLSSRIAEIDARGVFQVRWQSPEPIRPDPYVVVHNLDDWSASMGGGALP

With `O=C(O)c1cn(C2CC2)c2cc(N3CCNCC3)c(F)cc2c1=O` [Ciprofloxacin, ciprofloxacin, reference compound], in test [1] (setting [4]), the inhibition at 0.01 µg/mL worked out at 90% and 0.04 µg/mL produced 99.3% inhibition.
In the case of osteocrin, the “binding onto the AmiC sensor of P. aeruginosa” value in test [2] was “strong affinity”. The “dispersion of established biofilm (observation)” value (“dispersion” for short) in test [1] was “strongly and significantly dispersed”. Further, the “% Inhibition (2 h)” value in test [1] (Osteocrin 10^−8 M) was 59.4 (***) %. For the same compound, the “Biovolume (2 h)” value in test [1] (Osteocrin 10^−8 M, non-treated 29.8) worked out at 12.1 μm^3/μm^2.
For the compound colistin [reference compound], the “% Inhibition” value in test [1] (Colistin 1 μg/ml alone, 2 h) stood at 88.6%. In test [1] (Colistin 1 μg/ml alone, 2 h, non-treated 18.5), this compound had a Biovolume of 2.1 μm^3/μm^2.
For the compound polymyxin B [reference compound], in test [1] (Polymyxin B 4 μg/ml alone, 2 h), the “% Inhibition” value turned out to be 59.3%. The Biovolume in test [1] (Polymyxin B 4 μg/ml alone, 2 h, non-treated 18.2) was 7.4 μm^3/μm^2.
lebetin 1β [Lebetin L1 beta]: the “dispersion” value in test [1] is on record as “strongly dispersed”. Also, the “% Inhibition (2 h)” value in test [1] (Lebetin L1 beta 10^−8 M) stood at 67.0%. Besides, the “Biovolume (2 h)” value in test [1] (Lebetin L1 beta 10^−8 M, non-treated 21.0) is on record as 6.9 μm^3/μm^2.
Take “lebetin 2α (GDNKPPKKGPPNGCFGHKIDRIGSHSGLGCNKVDDNKG) [Lebetin L2 alpha]”: the “binding onto the AmiC sensor of P. aeruginosa” value in test [2] is listed as “strong affinity”. Also, the “dispersion” value in test [1] was “strongly and significantly dispersed”. The “% Inhibition (2 h)” value in test [1] (Lebetin L2 alpha 10^−8 M) is given as 70.2 (***) %. The “Biovolume (2 h)” value in test [1] (Lebetin L2 alpha 10^−8 M, non-treated 29.7) is reported as 8.9 μm^3/μm^2.
For the compound Brain Natriuretic Peptide [BNP], the “formation of P. aeruginosa biofilm” value in test [3] is given as “prevent the formation”.
Regarding `C[C@@H](O)[C@H]1C(=O)N2C(C(=O)O)=C(SCCN=CN)C[C@H]12` [Imipenem, imipenem, reference compound], the Biovolume in test [1] amounted to 7.0 μm^3/μm^2. Also, testing at 0.5 µg/mL in test [1] (setting [4]) gave an inhibition of 75%.
In test [1] (setting [4]), `NC[C@H]1O[C@H](O[C@H]2[C@H](O)[C@@H](O[C@H]3O[C@H](CO)[C@@H](O)[C@H](N)[C@H]3O)[C@H](N)C[C@@H]2N)[C@H](N)C[C@@H]1O` [Tobramycin, tobramycin, reference compound] gave an inhibition at 10 µg/mL of 78.5% and an inhibition at 50 µg/mL of 75.9%. For the same compound, in test [1] (Tobramycin 10 μg/ml alone, 2 h, non-treated 13.5), the Biovolume came to 2.9 μm^3/μm^2. In test [1] (Tobramycin 50 μg/ml alone, 2 h, non-treated 13.5), the Biovolume was found to be 3.26 μm^3/μm^2.

The record behind these values is patent US20220249616A1, “Osteocrin, Lebetin or ANP for Destroying Bacterial Biofilms” (priority 2019, published 2022).
